Measurements as given in ChEMBL document CHEMBL1139550, “1-Acyl-1H-[1,2,4]triazole-3,5-diamine analogues as novel and potent anticancer cyclin-dependent kinase inhibitors: synthesis and evaluation of biological activities” (J Med Chem, 2005).
Values joined by “and” are separate entries in the source; they are usually repeats but may differ in a detail not shown here. Identical values can stand only once.

Legend:
[1] = target: Cyclin-dependent kinase 1/cyclin B (Homo sapiens, UniProt P06493); assay: Inhibition of Cyclin B-cyclin-dependent kinase 1; assay type: protein-complex assay
MDA-MB-231 [2] = assay: In vitro inhibitory concentration against cell proliferation in human MDA-MB-231 (breast carcinoma) tumor cells; assay type: functional, cell-based
PC-3 = assay: In vitro inhibitory concentration against cell proliferation in human PC-3 (prostate adenocarcinoma) tumor cells; assay type: functional, cell-based
HCT-116 = assay: In vitro inhibitory concentration against cell proliferation in human HCT116 (colon carcinoma) tumor cells; assay type: functional, cell-based
HeLa [3] = assay: In vitro inhibitory concentration against cell proliferation in human HeLa (cervical adenocarcinoma) tumor cells; assay type: functional, cell-based
A-375 [4] = assay: In vitro inhibitory concentration against cell proliferation in human A375 (malignant melanoma),tumor cells; assay type: functional, cell-based
MDA-MB-231 [5] = assay: In vitro inhibitory concentration against cell proliferation in various human MDA-MB-231 (breast carcinoma) tumor cells; assay type: functional, cell-based
SK-OV-3 = assay: In vitro inhibitory concentration against cell proliferation in human SK-OV-3 (ovarian adenocarcinoma) tumor cells; assay type: functional, cell-based
Casein kinase II = Casein kinase II (Homo sapiens, UniProt P19784+P67870+P68400); assay: Inhibition of Casein kinase-2; assay type: protein-complex assay
[6] = Inhibition of Platelet-derived growth factor receptor beta
A-375 [7] = assay: In vitro inhibitory concentration against cell proliferation in human A375 (malignant melanoma) tumor cells; assay type: functional, cell-based
[8] = target: Cyclin-dependent kinase 4/cyclin D1 (Homo sapiens, UniProt P11802); assay: Inhibition of Cyclin-dependent kinase 4-cyclin D1; assay type: protein-complex assay
[9] = target: Cyclin-dependent kinase 2/cyclin A (Homo sapiens, UniProt P24941); assay: Inhibition of Cyclin-dependent kinase 2-cyclin A; assay type: protein-complex assay
[10] = Inhibition of Protein kinase-C alpha/gamma
[11] = target: Glycogen synthase kinase-3 (Homo sapiens, UniProt P49840+P49841); assay: Inhibition of Glycogen synthase kinase-3; assay type: protein assay
[12] = target: Fibroblast growth factor receptor 2 (Homo sapiens, UniProt P21802); assay: Inhibition of Fibroblast growth factor receptor 2
[13] = target: Protein kinase C beta type (Homo sapiens, UniProt P05771); assay: Inhibition of Protein kinase C- beta 2
[14] = Half life after oral administration of 30 mg/kg; assay type: ADME, organism-based; set-up: dose 30 mg/kg, route oral; details: rat, in vivo
[15] = target: Vascular endothelial growth factor receptor 2 (Homo sapiens, UniProt P35968); assay: Inhibition of Vascular endothelial growth factor receptor 2
CaM kinase II = CaM kinase II (Homo sapiens, UniProt Q13557+Q13555+Q13554+Q9UQM7); assay: Inhibition of [Ca(2+)]/calmodulin dependent kinase; assay type: protein assay
[16] = Area under concentration time curve after 3 mg/kg […] in nude mice; assay type: ADME, organism-based; set-up: dose 3 mg/kg; details: mouse, in vivo
[17] = Half life after intravenous administration of 3 mg/kg; assay type: ADME, organism-based; set-up: dose 3 mg/kg, route intravenous; details: rat, in vivo
[18] = Maximum plasma concentration after oral administration of 30 mg/kg in nude mice; assay type: ADME, organism-based; set-up: dose 30 mg/kg, route oral; details: mouse
[19] = Inhibition of Protein kinase A
[20] = Bioavailability in mouse (nude) (dose 30 mg/kg p.o.); assay type: ADME, organism-based; details: in vivo, po
[21] = Maximum plasma concentration after intravenous administration of 3 mg/kg in nude mice; assay type: ADME, organism-based; set-up: dose 3 mg/kg, route intravenous; details: mouse
Casein kinase I = assay: Inhibition of human casein kinase-1; assay type: protein assay
[22] = target: Mitogen-activated protein kinase; ERK1/ERK2 (Homo sapiens, UniProt P27361+P28482); assay: Inhibition of Mitogen-activated protein kinase 1; assay type: protein assay
[23] = Area under concentration time curve after 30 mg/kg of oral dose in nude mice; assay type: ADME, organism-based; set-up: dose 30 mg/kg, route oral; details: mouse, in vivo
HeLa [24] = assay: In vitro inhibitory concentration against cell proliferation in s human HeLa (cervical adenocarcinoma),tumor cells; assay type: functional, cell-based
[25] = Area under concentration time curve after 10 mg/kg of oral dose in dog; assay type: ADME, organism-based, Canis lupus familiaris; set-up: dose 10 mg/kg, route oral; details: in vivo
[26] = Bioavailability in dog after 10 mg/kg oral dose; assay type: ADME, organism-based, Canis lupus familiaris; details: in vivo, read-out: Bioavailabiility
[27] = Half life after oral administration of 10 mg/kg; assay type: ADME, organism-based, Canis lupus familiaris; set-up: dose 10 mg/kg, route oral; details: dog, in vivo
[28] = Maximum plasma concentration after intravenous administration of 3 mg/kg in rat; assay type: ADME, organism-based; set-up: dose 3 mg/kg, route intravenous
[29] = Area under concentration time curve after 3 mg/kg […] in rat; assay type: ADME, organism-based; set-up: dose 3 mg/kg; details: in vivo
[30] = Area under concentration time curve after 1 mg/kg of intravenous dose in dog; assay type: ADME, organism-based, Canis lupus familiaris; set-up: dose 1 mg/kg, route intravenous; details: in vivo
[31] = Maximum plasma concentration after oral administration of 30 mg/kg in rat; assay type: ADME, organism-based; set-up: dose 30 mg/kg, route oral
Mus musculus [32] = assay: Mean day of survival after intraperitoneal administration of 100 mg/kg in mice; assay type: functional
Mus musculus [33] = assay: Mean day of survival after intraperitoneal administration of 75 mg/kg in mice; assay type: functional
[34] = Bioavailability in rat after 30 mg/kg oral dose; assay type: ADME, organism-based; details: in vivo, read-out: Bioavailabiility
[35] = Maximum plasma concentration after intravenous administration of 1 mg/kg in dog; assay type: ADME, organism-based, Canis lupus familiaris; set-up: dose 1 mg/kg, route intravenous
[36] = Half life after intravenous administration of 1 mg/kg; assay type: ADME, organism-based, Canis lupus familiaris; set-up: dose 1 mg/kg, route intravenous; details: dog, in vivo
[37] = Maximum plasma concentration after oral administration of 10 mg/kg in dog; assay type: ADME, organism-based, Canis lupus familiaris; set-up: dose 10 mg/kg, route oral
[38] = Area under concentration time curve after 30 mg/kg of oral dose in rat; assay type: ADME, organism-based; set-up: dose 30 mg/kg, route oral; details: in vivo

Sequence of Fibroblast growth factor receptor 2 (P21802 whole entry): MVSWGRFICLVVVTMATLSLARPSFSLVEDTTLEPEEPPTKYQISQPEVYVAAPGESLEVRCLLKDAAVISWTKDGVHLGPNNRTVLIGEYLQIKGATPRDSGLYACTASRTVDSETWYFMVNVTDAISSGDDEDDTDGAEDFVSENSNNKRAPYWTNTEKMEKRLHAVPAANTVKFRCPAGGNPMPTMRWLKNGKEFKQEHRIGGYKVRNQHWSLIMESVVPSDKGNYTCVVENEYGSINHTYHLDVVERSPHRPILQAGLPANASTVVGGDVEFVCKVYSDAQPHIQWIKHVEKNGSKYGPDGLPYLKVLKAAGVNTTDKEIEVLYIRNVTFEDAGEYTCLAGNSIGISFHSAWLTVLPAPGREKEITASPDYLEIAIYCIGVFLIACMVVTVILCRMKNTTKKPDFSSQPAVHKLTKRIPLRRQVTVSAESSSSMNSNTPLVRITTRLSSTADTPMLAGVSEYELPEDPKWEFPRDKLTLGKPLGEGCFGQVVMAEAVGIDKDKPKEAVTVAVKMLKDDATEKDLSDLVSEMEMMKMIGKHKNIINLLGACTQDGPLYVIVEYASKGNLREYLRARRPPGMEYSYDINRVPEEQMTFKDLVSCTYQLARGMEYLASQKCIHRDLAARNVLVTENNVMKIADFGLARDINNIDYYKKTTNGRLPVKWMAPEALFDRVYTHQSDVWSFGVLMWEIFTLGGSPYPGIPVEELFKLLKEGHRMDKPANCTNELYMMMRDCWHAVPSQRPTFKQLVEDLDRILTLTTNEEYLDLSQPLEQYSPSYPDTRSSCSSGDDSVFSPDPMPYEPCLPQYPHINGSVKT
Sequence of Protein kinase C beta type (P05771 whole entry): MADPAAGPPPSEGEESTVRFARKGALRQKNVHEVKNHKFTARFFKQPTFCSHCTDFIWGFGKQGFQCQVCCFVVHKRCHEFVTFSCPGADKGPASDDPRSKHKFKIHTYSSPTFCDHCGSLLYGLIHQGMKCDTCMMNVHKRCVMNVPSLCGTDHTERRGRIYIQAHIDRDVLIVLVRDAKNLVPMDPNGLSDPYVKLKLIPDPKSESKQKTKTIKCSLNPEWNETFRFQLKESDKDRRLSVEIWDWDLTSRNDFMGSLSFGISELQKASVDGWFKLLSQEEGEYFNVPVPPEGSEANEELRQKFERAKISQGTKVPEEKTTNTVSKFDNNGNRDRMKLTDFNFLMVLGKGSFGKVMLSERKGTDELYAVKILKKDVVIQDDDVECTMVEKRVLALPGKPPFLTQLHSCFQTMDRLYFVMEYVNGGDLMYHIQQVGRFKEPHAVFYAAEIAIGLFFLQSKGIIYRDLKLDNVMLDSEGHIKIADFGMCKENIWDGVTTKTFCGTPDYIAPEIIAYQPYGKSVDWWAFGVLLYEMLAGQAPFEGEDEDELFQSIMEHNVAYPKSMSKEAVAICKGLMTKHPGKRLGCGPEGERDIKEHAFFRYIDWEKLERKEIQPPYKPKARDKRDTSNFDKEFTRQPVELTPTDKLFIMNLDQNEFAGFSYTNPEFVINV
Sequence of Casein kinase II (P67870 whole entry): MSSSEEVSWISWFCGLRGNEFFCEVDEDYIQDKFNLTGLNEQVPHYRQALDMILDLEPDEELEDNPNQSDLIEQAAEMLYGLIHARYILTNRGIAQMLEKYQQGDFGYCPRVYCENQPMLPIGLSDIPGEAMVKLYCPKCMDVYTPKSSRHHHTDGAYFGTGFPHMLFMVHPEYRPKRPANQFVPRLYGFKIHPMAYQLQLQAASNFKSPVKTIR
Sequence of Casein kinase II (P68400 whole entry): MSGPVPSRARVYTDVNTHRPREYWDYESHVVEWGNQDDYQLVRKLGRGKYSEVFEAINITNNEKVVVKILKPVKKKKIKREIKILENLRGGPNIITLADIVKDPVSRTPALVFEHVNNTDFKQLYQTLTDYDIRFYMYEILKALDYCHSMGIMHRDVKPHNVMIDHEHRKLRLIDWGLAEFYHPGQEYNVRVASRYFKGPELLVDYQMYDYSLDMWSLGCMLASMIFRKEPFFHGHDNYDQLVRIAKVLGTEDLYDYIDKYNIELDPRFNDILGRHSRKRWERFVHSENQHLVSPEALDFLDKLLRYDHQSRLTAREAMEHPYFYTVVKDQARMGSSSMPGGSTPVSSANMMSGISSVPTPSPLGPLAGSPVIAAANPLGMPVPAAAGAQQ
Sequence of Casein kinase II (P19784 whole entry): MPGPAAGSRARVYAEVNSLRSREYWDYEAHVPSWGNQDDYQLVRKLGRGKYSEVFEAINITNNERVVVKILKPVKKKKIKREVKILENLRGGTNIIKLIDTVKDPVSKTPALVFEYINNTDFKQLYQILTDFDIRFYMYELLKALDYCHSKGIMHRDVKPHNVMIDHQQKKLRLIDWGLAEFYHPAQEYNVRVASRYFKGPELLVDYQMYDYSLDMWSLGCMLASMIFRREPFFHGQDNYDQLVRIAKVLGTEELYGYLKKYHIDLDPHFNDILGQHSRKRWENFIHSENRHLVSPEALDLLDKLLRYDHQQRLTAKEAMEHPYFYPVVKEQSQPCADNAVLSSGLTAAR
Sequence of Cyclin-dependent kinase 4/cyclin D1 (P11802 whole entry): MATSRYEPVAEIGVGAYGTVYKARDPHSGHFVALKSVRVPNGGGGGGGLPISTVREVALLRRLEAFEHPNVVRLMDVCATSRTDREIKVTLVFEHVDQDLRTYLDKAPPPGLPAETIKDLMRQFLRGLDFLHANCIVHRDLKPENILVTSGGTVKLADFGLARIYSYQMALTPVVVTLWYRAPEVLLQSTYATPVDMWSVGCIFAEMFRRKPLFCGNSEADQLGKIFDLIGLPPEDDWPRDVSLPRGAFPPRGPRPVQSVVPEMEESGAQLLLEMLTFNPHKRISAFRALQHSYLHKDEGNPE
Sequence of Cyclin-dependent kinase 4/cyclin D1 (P24385 whole entry, further chain): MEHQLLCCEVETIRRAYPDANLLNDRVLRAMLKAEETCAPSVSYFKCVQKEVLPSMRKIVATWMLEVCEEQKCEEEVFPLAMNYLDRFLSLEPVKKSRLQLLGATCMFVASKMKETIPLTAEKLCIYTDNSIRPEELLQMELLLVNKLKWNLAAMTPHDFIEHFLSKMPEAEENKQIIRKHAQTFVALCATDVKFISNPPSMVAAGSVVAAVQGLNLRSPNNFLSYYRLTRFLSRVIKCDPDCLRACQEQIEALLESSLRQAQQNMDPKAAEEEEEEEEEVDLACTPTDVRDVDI
Sequence of Vascular endothelial growth factor receptor 2 (P35968 whole entry): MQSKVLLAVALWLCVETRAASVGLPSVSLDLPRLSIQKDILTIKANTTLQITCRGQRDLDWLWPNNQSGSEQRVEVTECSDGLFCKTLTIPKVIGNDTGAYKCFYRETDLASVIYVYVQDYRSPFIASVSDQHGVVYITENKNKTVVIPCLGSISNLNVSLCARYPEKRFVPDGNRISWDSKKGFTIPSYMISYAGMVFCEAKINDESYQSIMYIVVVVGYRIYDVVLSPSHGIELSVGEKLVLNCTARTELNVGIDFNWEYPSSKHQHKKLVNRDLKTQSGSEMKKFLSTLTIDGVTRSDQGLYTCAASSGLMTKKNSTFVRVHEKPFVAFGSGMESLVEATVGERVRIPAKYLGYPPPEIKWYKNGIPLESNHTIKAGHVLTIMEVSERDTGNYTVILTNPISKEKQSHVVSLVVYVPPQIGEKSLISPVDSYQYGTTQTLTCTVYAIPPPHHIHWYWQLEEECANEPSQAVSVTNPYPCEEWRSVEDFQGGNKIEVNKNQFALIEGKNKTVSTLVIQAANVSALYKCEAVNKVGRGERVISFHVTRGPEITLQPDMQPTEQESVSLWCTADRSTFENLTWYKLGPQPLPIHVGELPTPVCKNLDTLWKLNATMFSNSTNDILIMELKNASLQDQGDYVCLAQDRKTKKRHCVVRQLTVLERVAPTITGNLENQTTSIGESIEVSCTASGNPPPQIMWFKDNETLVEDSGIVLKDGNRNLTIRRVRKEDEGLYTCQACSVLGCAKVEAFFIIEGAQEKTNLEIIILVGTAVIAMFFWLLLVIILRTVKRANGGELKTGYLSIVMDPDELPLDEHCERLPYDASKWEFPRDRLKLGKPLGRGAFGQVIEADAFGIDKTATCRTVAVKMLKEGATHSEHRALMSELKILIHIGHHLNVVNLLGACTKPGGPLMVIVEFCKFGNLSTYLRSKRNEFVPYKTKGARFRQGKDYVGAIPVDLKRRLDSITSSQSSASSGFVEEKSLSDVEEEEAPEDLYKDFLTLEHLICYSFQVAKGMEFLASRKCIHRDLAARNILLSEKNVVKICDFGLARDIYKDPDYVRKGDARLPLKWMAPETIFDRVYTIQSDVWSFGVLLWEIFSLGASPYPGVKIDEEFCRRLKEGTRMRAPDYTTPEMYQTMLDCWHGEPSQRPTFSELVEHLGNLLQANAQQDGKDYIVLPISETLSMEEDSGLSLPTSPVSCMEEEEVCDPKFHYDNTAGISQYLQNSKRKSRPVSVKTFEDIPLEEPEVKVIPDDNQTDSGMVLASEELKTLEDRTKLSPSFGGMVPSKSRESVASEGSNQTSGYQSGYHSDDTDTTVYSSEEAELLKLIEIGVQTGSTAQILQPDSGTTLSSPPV

## Nc1nc(Nc2ccc(S(N)(=O)=O)cc2)nn1Cc1c(F)cccc1F
[1]
  IC50: > 100 µM

## Cc1cc(C)c(C(=O)n2nc(Nc3ccc(S(N)(=O)=O)cc3)nc2N)s1
MDA-MB-231 [2]
  IC50: 0.17 µM
PC-3
  IC50: 0.037 µM
HCT-116
  IC50: 0.27 µM
HeLa [3]
  IC50: 0.072 µM

## N[n+]1nc(Nc2ccc(S(N)(=O)=O)cc2)nn1S(=O)(=O)c1c(F)cccc1F
[1]
  IC50: 0.66 µM

## Cc1ccc(F)c(C(=O)n2nc(N)nc2Nc2ccc(S(N)(=O)=O)cc2)c1F
[1]
  IC50: 2.1 µM
A-375 [4]
  IC50: > 10 µM
HCT-116
  IC50: 4.1 µM
HeLa [3]
  IC50: 28.5 µM

## CN(C)CCNS(=O)(=O)c1ccc(Nc2nc(N)n(C(=O)c3c(F)cccc3F)n2)cc1
[1]
  IC50: 0.13 µM
HeLa [3]
  IC50: 0.14 µM

## Nc1nc(Nc2ccc(S(N)(=O)=O)cc2)nn1C(=O)c1cccs1
A-375 [4]
  IC50: 2.6 µM
MDA-MB-231 [5]
  IC50: 0.76 µM
PC-3
  IC50: 0.16 µM
HCT-116
  IC50: 1.9 µM
HeLa [3]
  IC50: 0.55 µM
SK-OV-3
  IC50: 0.73 µM

## Nc1nc(Nc2ccc(S(N)(=O)=O)cc2)nn1C(=S)Nc1c(F)cccc1F
Casein kinase II
  IC50: > 100 µM
A-375 [4]
  IC50: 0.092 µM
HCT-116
  IC50: 0.02 µM
HeLa [3]
  IC50: 0.035 µM
[6]
  IC50: 1.6 µM

## Nc1nc(Nc2ccc(S(N)(=O)=O)cc2)nn1C(=O)c1sccc1F
PC-3
  IC50: 0.37 µM
HCT-116
  IC50: 0.21 µM
HeLa [3]
  IC50: 0.26 µM
A-375 [7]
  IC50: 0.94 µM
SK-OV-3
  IC50: 2.1 µM

## Cc1ccsc1C(=O)n1nc(Nc2ccc(S(N)(=O)=O)cc2)nc1N
Casein kinase II
  IC50: > 100 µM
[8]
  IC50: 0.12 µM
A-375 [4]
  IC50: 0.25 µM
PC-3
  IC50: 0.11 µM
[9]
  IC50: 0.0004 µM
HCT-116
  IC50: 0.13 µM
HeLa [3]
  IC50: 0.091 µM
[10]
  IC50: > 100 µM
[11]
  IC50: 0.026 µM
[6]
  IC50: 0.31 µM
[12]
  IC50: 0.18 µM
[13]
  IC50: > 100 µM

## Cc1ccc(F)c(C(=O)n2nc(Nc3ccc(S(N)(=O)=O)cc3)nc2C)c1F
Casein kinase II
  IC50: > 100 µM
[8]
  IC50: 0.19 µM
[14]
  half-life: 2.29 h
[15]
  IC50: 0.51 µM
CaM kinase II
  IC50: > 100 µM
[16]
  AUC: 0.27 µM·h
[1]
  IC50: 0.008 µM and 0.003 µM
[17]
  half-life: 1.94 h
PC-3
  IC50: 0.16 µM
[9]
  IC50: 0.0003 µM
HCT-116
  IC50: 0.88 µM
HeLa [3]
  IC50: 0.37 µM
[10]
  IC50: > 100 µM
[18]
  Cmax: 430 nM
[19]
  IC50: > 100 µM
[11]
  IC50: 0.031 µM
[20]
  bioavailability: 20.6%
[21]
  Cmax: 330 nM
[6]
  IC50: 10.7 µM
Casein kinase I
  IC50: > 100 µM
[12]
  IC50: 0.27 µM
SK-OV-3
  IC50: 0.22 µM
[13]
  IC50: > 100 µM
[22]
  IC50: 9.5 µM
[23]
  AUC: 0.55 µM·h

## Nc1nc(Nc2ccc(S(N)(=O)=O)cc2)n(C(=S)c2c(F)cccc2F)n1
A-375 [4]
  IC50: 0.97 µM
HCT-116
  IC50: 0.91 µM
HeLa [3]
  IC50: 0.13 µM

## Nc1nc(Nc2ccc(S(N)(=O)=O)cc2)nn1C(=O)Nc1c(F)cccc1F
A-375 [4]
  IC50: 48.3 µM
HeLa [24]
  IC50: 3.73 µM
HCT-116
  IC50: 4.7 µM

## Cc1nc(Nc2ccc(S(N)(=O)=O)cc2)nn1C(=O)c1c(F)ccc(F)c1F
[1]
  IC50: 0.0032 µM
HeLa [3]
  IC50: 0.22 µM
SK-OV-3
  IC50: 1.6 µM

## Nc1nc(Nc2ccc(S(N)(=O)=O)cc2)nn1C(=O)c1c(F)cccc1F [JNJ-7706621]
[25]
  AUC: 15.5 µM·h
[14]
  T1/2: 2.2 h and 1.7 h
[26]
  bioavailability: 63.3%
[16]
  AUC: 3.2 µM·h
[17]
  T1/2: 0.64 h
  half-life: 0.51 h
[27]
  half-life: 2.36 h
[28]
  Cmax: 23200 nM
[29]
  AUC: 11.4 µM·h
MDA-MB-231 [5]
  IC50: 0.59 µM
PC-3
  IC50: 0.12 µM
[30]
  AUC: 2.45 µM·h
[31]
  Cmax: 2500 nM
[10]
  IC50: 30.1 µM
[18]
  Cmax: 210 nM
[19]
  IC50: > 100 µM
Mus musculus [32]
  Mean day survival: 50.1 days
Mus musculus [33]
  Mean day survival: 48.5 days
[34]
  bioavailability: 8%
[20]
  bioavailability: 2%
[21]
  Cmax: 6400 nM
[35]
  Cmax: 2190 nM
[36]
  half-life: 3.89 h
[12]
  IC50: 0.22 µM
[37]
  Cmax: 4580 nM
SK-OV-3
  IC50: 0.75 µM
[13]
  IC50: > 100 µM
[38]
  AUC: 9.5 µM·h
[23]
  AUC: 0.74 µM·h
